US20240197651A1, “DEXMECAMYLAMINE AND USES THEREOF” (Atacama Therapeutics, Inc., priority 2021, published 2024)

How the values were obtained:
Type in all cases: in vivo
[1] = system: patients with sebaceous adenoma; assay: Treatment of sebaceous adenoma
Protocol: The compound of the disclosure (e.g., dexmecamylamine substantially free of exo-R-mecamylamine) is administered to patients with sebaceous adenoma. […] In some embodiments, the subject produces sebum in an amount of 100 μg/cm^2 and above (e.g., 125, 135, 150, 175, 200 μg/cm^2 or higher).

[2] = system: patients with hidradenitis suppurativa; assay: Treatment of hidradenitis suppurativa
Protocol: The compound of the disclosure (e.g., dexmecamylamine substantially free of exo-R-mecamylamine) is administered to patients with hidradenitis suppurativa. […] In some embodiments, the subject produces sebum in an amount of 100 μg/cm^2 and above (e.g., 125, 135, 150, 175, 200 μg/cm^2 or higher). In particular, 4 mg of dexmecamylamine hydrochloride is administered orally twice a day to a subject with hidradenitis suppurativa. Efficacy is measured by a change in pain, as measured using a 10-point numerical rating scale, 1 through 10, with 10 being the worst, from baseline to week 12; a change in quality of life using Dermatology Life Quality Index (DLQI) from baseline to week 12; a change in clinical status using the Hurley Staging from baseline to week 12; a change in clinical status using the International Hidradenitis Suppurative Severity Score System (IHS4) from baseline to week 12; a change in clinical status using the Hidradenitis Suppurative Clinical Response (HiSCR) from baseline to week 12; a change in clinical status using the Hidradenitis Suppurative Physician Global Assessment (HS-PGA) from baseline to week 12; a change in clinical status using the Hidradenitis Suppurative Area and Severity Index-Revised (HASI-R) from baseline to week 12; and/or a change in the absolute number of abscesses and inflammatory nodules.

[3] = system: patients with enlarged pores; assay: Treatment of enlarged pores
Protocol: The compound of the disclosure (e.g., dexmecamylamine substantially free of exo-R-mecamylamine) is administered to patients with enlarged pores. […] In some embodiments, the compound is dexmecamylamine substantially free of exo-R-mecamylamine, or a pharmaceutically acceptable salt thereof. In some embodiments, the subject produces sebum in an amount of 100 μg/cm^2 and above (e.g., 125, 135, 150, 175, 200 μg/cm^2 or higher).

patients with oily skin = assay: Treatment of oily skin
Protocol: The compound of the disclosure (e.g., dexmecamylamine substantially free of exo-R-mecamylamine) is administered to patients with oily skin. […] In some embodiments, the subject produces sebum in an amount of 100 μg/cm^2 and above (e.g., 125, 135, 150, 175, 200 μg/cm^2 or higher).

patients with seborrhea = assay: Treatment of seborrhea
Protocol: The compound of the disclosure (e.g., dexmecamylamine substantially free of exo-R-mecamylamine) is administered to patients with seborrhea. […] In some embodiments, the subject produces sebum in an amount of 100 μg/cm^2 and above (e.g., 125, 135, 150, 175, 200 μg/cm^2 or higher).

patients with acne = assay: Treatment of acne
Protocol: The compound of the disclosure (e.g., dexmecamylamine substantially free of exo-R-mecamylamine or pharmaceutically acceptable salt thereof) is administered to patients with acne. […] In some embodiments, the compound is dexmecamylamine substantially free of exo-R-mecamylamine, or a pharmaceutically acceptable salt thereof. In some embodiments, the subject produces sebum in an amount of 100 μg/cm^2 and above (e.g., 125, 135, 150, 175, 200 μg/cm^2 or higher). In particular, 4 mg of dexmecamylamine hydrochloride is administered orally twice a day to a subject. Subjects have oily skin (>100 μg/cm^2) as measured on three locations of the face by a Sebumeter® grease spot photometry device and has facial acne vulgaris (including the nose). Efficacy is determined by a comparison of sebum as an absolute change from baseline at 12 weeks. Other measures of efficacy include the absolute change from baseline in inflammatory and non-inflammatory lesion counts at 8 weeks and the percent change from baseline in lesion counts (inflammatory and noninflammatory) at weeks 8 and 12. […] The assessment may include the quantity of lesions, size of lesions, intensity of inflammation, and location of lesions to consider the quality and quantity of lesions.

[4] = system: patients with seborrheic dermatitis; assay: Treatment of seborrheic dermatitis
Protocol: The compound of the disclosure (e.g., dexmecamylamine substantially free of exo-R-mecamylamine) is administered to patients with seborrheic dermatitis. […] In some embodiments, the subject produces sebum in an amount of 100 μg/cm^2 and above (e.g., 125, 135, 150, 175, 200 μg/cm^2 or higher).

patients with wrinkles = assay: Treatment of wrinkles
Protocol: The compound of the disclosure (e.g., dexmecamylamine substantially free of exo-R-mecamylamine) is administered to patients with wrinkles. […] In some embodiments, the subject produces sebum in an amount of 100 μg/cm^2 and above (e.g., 125, 135, 150, 175, 200 μg/cm^2 or higher).

[5] = system: patients with sebaceous hyperplasia; assay: Treatment of sebaceous hyperplasia
Protocol: The compound of the disclosure (e.g., dexmecamylamine substantially free of exo-R-mecamylamine) is administered to patients with sebaceous hyperplasia. […] In some embodiments, the subject produces sebum in an amount of 100 μg/cm^2 and above (e.g., 125, 135, 150, 175, 200 μg/cm^2 or higher).

[6] = system: human subjects with hyperhidrosis and oily skin; assay: Phase II clinical study, facial sebum production; details: for Average response category at 2 weeks: change in percent of average facial sebum quantity at end of 2-week treatment vs baseline; for Average response category at 4 weeks: change in percent of average facial sebum quantity at end of 4-week treatment vs baseline; for Responders (%): subjects with 20% or greater reduction in sebum quantity following treatment
Source text: Acne vulgaris is a dermatological condition characterized by increased sebum production, which is driven, in part, by cholinergic signaling within the sympathetic nervous system. Activation of nicotinic receptors on human sebaceous glands is known to increase sebum production and secretion. Dexmecamylamine acts on nicotinic acetylcholine receptors to reduce sympathetic tone through the selective inhibition of presynaptic nicotinic receptors in the sympathetic ganglia. In order to determine the therapeutic efficacy of dexmecamylamine in the treatment of acne and related conditions, the inventors leveraged a Phase II clinical study in 15 human subjects with hyperhidrosis and oily skin (i.e., sebum production of 100 μg/cm^2 or greater (e.g., 125, 135, 150, 175, 200 μg/cm^2 or higher)) that were treated with dexmecamylamine hydrochloride. […] [table]

[7] = system: patients with sebaceous carcinoma; assay: Treatment of sebaceous carcinoma
Protocol: The compound of the disclosure (e.g., dexmecamylamine substantially free of exo-R-mecamylamine) is administered to patients with sebaceous carcinoma. […] In some embodiments, the subject produces sebum in an amount of 100 μg/cm^2 and above (e.g., 125, 135, 150, 175, 200 μg/cm^2 or higher).

[8] = system: patients with sebaceous cyst; assay: Treatment of sebaceous cyst
Protocol: The compound of the disclosure (e.g., dexmecamylamine substantially free of exo-R-mecamylamine) is administered to patients with sebaceous cyst. […] In some embodiments, the subject produces sebum in an amount of 100 μg/cm^2 and above (e.g., 125, 135, 150, 175, 200 μg/cm^2 or higher).

For `CN[C@@]1(C)[C@@H]2CC[C@@H](C2)C1(C)C` [dexmecamylamine], the “symptoms, sebaceous adenoma” value [1] was “improved symptoms”, the “symptoms, hidradenitis suppurativa” value [2] was “improved symptoms” and the “symptoms, enlarged pores” value [3] was “improved symptoms”. The “symptoms, oil production by the skin” value (patients with oily skin) was “improved symptoms”, the “symptoms, seborrhea” value (patients with seborrhea) was “improved symptoms” and the “symptoms of acne (whiteheads, blackheads, papules, pimples, nodules, cysts)” value (patients with acne) was “improved symptoms”. For the same molecule, the “symptoms, seborrheic dermatitis” value [4] was “improved symptoms”, the “symptoms, wrinkles” value (patients with wrinkles) was “improved symptoms” and the “symptoms, sebaceous hyperplasia” value [5] was “improved symptoms”. The “Average response category at 2 weeks” value ([6]; 2 mg BID) was “Low (Reduction in sebum production of less than 20%.)”, the “Average response category at 4 weeks” value ([6]; 2 mg BID) was “Medium^†† (Reduction in sebum production between 20% and 35%.)” and the “Responders (%)” value ([6]; 2 mg BID) was 80%. The facial sebum production ([6]; 2 mg or 4 mg BID, four weeks of treatment) was “reduction in facial sebum production”, the “Average response category at 2 weeks” value ([6]; 4 mg BID) was “Low (Reduction in sebum production of less than 20%.)” and the “Average response category at 4 weeks” value ([6]; 4 mg BID) was “High^††† (Reduction in sebum production of greater than 35%.)”. The “Responders (%)” value ([6]; 4 mg BID) was 100%, the “symptoms, sebaceous carcinoma” value [7] was “improved symptoms” and the “symptoms, sebaceous cyst” value [8] was “improved symptoms”.
